Consider ten molecules from patent US11478011B2, “Nutritional compositions and infant formula for promoting de novo myealination” (NESTEC S.A., priority 2015, dated 2022).

The test system of one test is Neural Progenitor Cell (NPCs) from E14 mouse neocortex. Description: Neurosphere counts in 96-well plates. The settings on record: Low dose (Dose 1: 10 nM); grown for 2 days; control 103. Type of test: cell-based. On the procedure:
(§1) Media Compositions and Culture Methods 1) Neurobasal Complete Media Neurobasal media (LIFE TECHNOLOGIES CORP, #21103-049) 50× B27 supplement (LIFE TECHNOLOGIES CORP, #12587-010) 2 mM L-Glutamine (LIFE TECHNOLOGIES CORP, #25030-149) 1× Pen-Strep (LIFE TECHNOLOGIES CORP, #15140-122) 2) Neurobasal Media Complete with Growth Factors (GF) Above recipe with GF mix 1M Tris (MW 121.14, Fisher SCI BP152) Heparin (sigma H3149) BSA (Sigma A7030) DNAse, RNase, Protease free water (Fisher SCI AC327390010) EGF (GIBCO PHG0311) bFGF vial (GIBCO PHG0021) 3) Neurobasal Media No Choline (Life Technologies, Formulated Custom, No L-Glutamine, no phenol red) Note: complete and complete with GF made the same as above. Generation of Neural Progenitor Cell (NPCs) Libraries: dissociation of E14 mouse neocortex Reagents Needed: DPBS (1×)+10% Pen/Strep Neurobasal media/10% Pen/Strep/10× Hepes Procedure:
E14 pup brains were harvested and placed in ice cold DPBS (1×)+10% Pen/Strep, then they were dissected using a dissecting microscope. From each pup, one brain hemisphere was placed in 2 ml of Neurobasal media/10% P/S/10× Hepes and another brain hemisphere was placed in another tube.
The tissue from each tube was aseptically and manually dissociate into single cells, neurobasal complete medium was added and centrifuged at 130 G for 5 min. […]
Regarding Sphingomyelin, the “number of neurospheres, Average (Mean)” value turned out to be 94.

A further test has the same test system. The test is described as follows: Monolayer culture NPC proliferation assay. The settings on record: low dose (Dose 1: 10 nM); 3 days; control 262. Type of test: cell-based. On the procedure: as §1
E14 pup brains were harvested and placed in ice cold DPBS (1×)+10% Pen/Strep, then they were dissected using a dissecting microscope. From each pup, one brain hemisphere was placed in 2 ml of Neurobasal media/10% P/S/10× Hepes and another brain hemisphere was placed in another tube. […]
EDU incorporation was measured using Click-iT® EdU Alexa Fluor® 555 Imaging Kit (Life technologies, #c10338). […]
As for Sphingomyelin, the “neuronal proliferation, DAPI” value is reported as 280.

Another test has as its system brain myelination (myelin water fraction) of children up to 5 years of age. The test is described as follows: Correlation analysis between infant formula nutrient composition and brain myelination (mcDESPOT MRI myelin water fraction). Format: in vivo, human. The settings on record: formula-fed children up to 5 years; brain regions listed in the block; FIG. 1b-1p. On the procedure:
MRI (Magnetic Resonance Imaging): MRI brain scans of infants and children between 0 and 5 years were acquired using a white matter imaging technique. This technique provides a quantitative measure, the Myelin Water Fraction (MWF), which is a surrogate marker of myelin content in the brain. When mapped as a function of time across early childhood, myelination trajectories can be generated.
Infant formula composition: six infant formulas fed to infants participating in a study were analyzed for their composition/level of myelin-relevant nutrients.
Infants included in this study were drawn from a larger longitudinal study of normal brain and behavioral development: the Brown University Assessment of Myelination and Behavior Across Maturation (BAMBAM). To focus on neurotypical development, children with known potential risk factors for learning, neurologic, or psychiatric disorders were specifically excluded during recruitment and enrollment. Thus, children with in utero alcohol or illicit substance exposure, premature (<37 weeks gestation) or multiple birth, fetal ultrasound abnormalities, complicated pregnancy (e.g., preeclampsia), APGAR scores <8, NICU admission, neurological disorder (e.g., head injury, epilepsy), psychiatric or developmental disorders in the infant, parents or siblings (including maternal depression requiring medication) were excluded. Ongoing screenings, such as the MCAT for autism, or CBCL for behavioral problems, were further used to remove enrolled children with clinically concerning behaviors or overt medical conditions (such as autism spectrum disorders).
A combination of retrospective and prospective data were acquired from parents via detailed medical histories and parental interview on the type of infant formula used, percentage of breastfeeding to formula feeding, and length of exclusive breastfeeding. This information was updated at each study visit, which occurred approximately every 6 months for children under 2 years, and yearly for older children. Using this information, children were categorized into one of 2 groups: #1. Exclusively formula-fed; and #2. Exclusively breastfed for at least 90 days (3 months). Children who were fed a combination of breastmilk and formula within 3 months were excluded from our analysis. Infants within the exclusively formula-fed group were further sub-divided based on parental reports of the main infant formula used throughout the first 3 months. Main formula was defined as that given 90% of the time or more (in the case were parents used an alternate brand during vacation, for example).
Using these criteria, 94 exclusively formula-fed infants and young children were selected into group #1. These included 13 children who received formula #2; 28 who received formula #5; 8 who received formula #3; 39 who received formula #4; 5 who received formula #1 and 1 who received formula #6. A sample of 52 exclusively breast-fed infants were also selected and matched to the over formula-fed group with regards to mean age, gestation duration, birth weight, male:female ratio, ethnicity ratio, maternal education, family size, and number of languages spoken in the home (in addition to English).
Each infant was scanned using the mcDESPOT (multicomponent Driven Equilibrium Single Pulse Observation of T1 and T2) white matter imaging technique Deoni et al. (Magn. Reson. Med. 2008, 60:1372-1387), which provides a quantitative measure of the myelin water fraction (MWF)—a measure of myelin content—at each point throughout the brain. All infants were scanned during natural (i.e. non-sedated) sleep using acoustically-muffled mcDESPOT imaging protocols. Total imaging times ranged from 19 minutes for the youngest toddlers to 24 minutes for the older 4 year-old children.
For the molecule `CCCCC/C=C\C/C=C\C/C=C\C/C=C\CCCC(=O)O` [AA, arachidonic acid], the “association of nutrient with myelination (myelin water fraction) over time in the brain” value is given as “association with myelination (myelin water fraction) was observed over time in the brain”. For `[Ca+2]` [calcium], the “association of nutrient with myelination (myelin water fraction) over time in the brain” value is recorded as “association with myelination (myelin water fraction) was observed over time in the brain”. For the molecule `[Mg+2]` [magnesium], the “association of nutrient with myelination (myelin water fraction) over time in the brain” value was “association with myelination (myelin water fraction) was observed over time in the brain”. Still for that read-out and setting: the entry for `[P]` [phosphorus] is “association with myelination (myelin water fraction) was observed over time in the brain”; for `[Zn]` [zinc] it is “association with myelination (myelin water fraction) was observed over time in the brain”. As to Sphingomyelin, the “association of nutrient with myelination (myelin water fraction) over time in the brain” value is on record as “association with myelination (myelin water fraction) was observed over time in the brain”.

As for iron, the “association of nutrient with myelination (myelin water fraction) over time in the brain” value is “association with myelination (myelin water fraction) was observed over time in the brain”. Regarding phosphatidylcholine, the “association of nutrient with myelination (myelin water fraction) over time in the brain” value was “association with myelination (myelin water fraction) was observed over time in the brain”. Turning to phosphatidylinositol, the “association of nutrient with myelination (myelin water fraction) over time in the brain” value is listed as “association with myelination (myelin water fraction) was observed over time in the brain”. On the same count and under the same terms, the value for vitamin B12 was “association with myelination (myelin water fraction) was observed over time in the brain”.
